Measured values published in patent US20230365691A1, “USE OF ANTI-PD-1 ANTIBODY IN TREATMENT OF NASOPHARYNGEAL CARCINOMA” (SHANGHAI JUNSHI BIOSCIENCES CO., LTD., priority 2020, published 2023).
Where two headings read alike, the source gives them in different places.

Tests used:
[1] = tested on: recurrent or metastatic nasopharyngeal carcinoma patient; format: in vivo, human
Description: The PD-L1 expression status in tumour biopsies was determined by SP142 IHC staining, with tumour proportion score (TPS) > 1% being determined as positive.
Tumour biopsy tissues and matched peripheral blood samples from subjects were subjected to whole exome sequencing (WES) to identify tumour-specific mutations. […] In this study, the top 10% or 20% cut-off values of TMB (2.9 Muts/Mb and 2.0 Muts/Mb, respectively) were selected for evaluation of clinical response.
The correlation between genomic changes and clinical efficacy was analysed.
Plasma was collected from patients before administration, and the number of copies of EBV DNA was analysed by qRT-PCR once every 4 weeks.

[2] = tested on: recurrent or metastatic nasopharyngeal carcinoma patient; conditions: human, in vivo
Excerpt: Inclusion criteria: eligible subjects must (1) be 18 years old or older, (2) have recurrent or metastatic nasopharyngeal carcinoma, (3) be refractory to standard systemic therapy or have progressive disease after 6 months of radiotherapy and chemotherapy, (4) have an ECOG score of 0 or 1, (5) have the normal organ function within 10 days […] treatment, (6) have no history of autoimmune diseases or other malignant cancers, and (7) have not received any anti-PD-1/or anti-PD-L1 immunotherapy before.
Subjects must have an evaluable lesion according to RECIST v 1.1, have not received anti-tumour monoclonal antibody drug treatment within 4 weeks before treatment, have not received any anti-tumour drug treatment within 2 weeks before treatment, and have not received systemic steroid drug treatment within 7 days before treatment.
From Dec. 22, 2016 to Feb. 19, 2019, a total of 279 patients with recurrent or metastatic NPC were screened from 17 centres in Chinese mainland, and 190 patients were enrolled in this study. […] Of the two histological subtypes, 182 patients (95.8%) had non-keratinizing NPC and 8 patients (4.2%) had keratinizing NPC. There were 116 patients (61.1%) who had received at least two kinds of systemic therapy.
Test drug: anti-PD-1 antibody toripalimab (WO 2014206107). […]

[3] = Immunogenicity: anti-drug antibodies (ADAs) in the phase II trial; format: in vivo, human
Excerpt: Anti-drug antibodies (ADAs) were detected in 190 patients. Seven cases (3.7%) were positive for ADA, including four consecutive positive samples.

[4] = tested on: recurrent or metastatic nasopharyngeal carcinoma patient; assay: Single-arm phase II clinical trial of toripalimab: anti-tumour activity by RECIST v1.1 / irRECIST; format: in vivo, human
Description: Test drug: anti-PD-1 antibody toripalimab (WO 2014206107).
The subjects were evaluated every 8 weeks for the first year and every 12 weeks thereafter according to RECIST v1.1 and the Immune-Related Response Evaluation Criteria in Solid Tumour (irRECIST). The subjects were evaluated every 3 months after drug discontinuance.
This was a single-arm, phase II, open-label clinical trial. This study was conducted to evaluate the safety and anti-tumour activity of an anti-PD-1 antibody in treatment of a recurrent or metastatic nasopharyngeal carcinoma patient.

[5] = Investigator, RECIST1.1, n = 190
[6] = Investigator, irRECIST, n = 190
[7] = at least two prior treatments (n = 116)
[8] = keratinizing versus non-keratinizing NPC

With toripalimab the PFS ([1]; 10% of patients with the highest TMB value, similar to the 90% with the lowest TMB value) was 1.9 months, the ORR ([1]; 11 patients with genome amplification of CCND1 and/or FGF14, FGF3 or FGF4 chromosome 11q13 region) was 0% and the “median time of at least 2-fold increase in plasma EBV DNA copies prior to imaging-confirmed progressive disease” value ([1]; 14 patients who experienced progressive disease) was 3 months. The ORR ([1]; 19 patients with ETV6 mutations) was 5.3%, the ORR ([1]; PD-L1+ patients) was 27.1% and the ORR ([1]; PD-L1- patients) was 19.4%. The mOS ([1]; PD-L1 > 25%) was “not reached”, the mPFS ([1]; PD-L1 > 25%) was 7.2 months and the “HR for OS” value ([1]; PD-L1 > 25% versus ≤ 25%) was 0.57. The “HR for PFS” value ([1]; PD-L1 > 25% versus ≤ 25%) was 0.64, the mPFS ([1]; PD-L1 ≤ 25%) was 1.9 months and the ORR ([1]; at least 2-fold decrease in plasma EBV DNA copies on day 28 (n = 60)) was 48.3%. The ORR ([1]; baseline EBV titre < 10000 IU/mL) was 26.7%, the ORR ([1]; baseline EBV titre ≥ 10000 IU/mL) was 15.4% and the OS ([1]; high TMB patients) was 9.2 months. For the same substance, the ORR ([1]; less than 2-fold decrease in plasma EBV DNA copies on day 28 (n = 88)) was 5.7%, the OS ([1]; low TMB patients) was 17.4 months and the ORR ([1]; patients with PD-L1 > 25%) was 38.1%. For the same substance, the ORR ([1]; patients with PD-L1 ≤ 25%) was 19.3%, the “median decrease in the number of copies of EBV DNA in plasma from baseline to the nadir” value ([1]; patients with objective response (n = 34)) was 31 fold and the “change in the number of copies of EBV DNA in plasma from baseline” value ([1]; patients with progressive disease (n = 80)) was “no change”. For the same substance, the “decrease in the number of copies of EBV DNA in plasma from baseline to the nadir” value ([1]; patients with stable disease (n = 35)) was 3 fold, the ORR ([1]; top 10% of patients by TMB (cut-off 2.9 Muts/Mb)) was 17.6% and the ORR ([1]; top 20% of patients by TMB (cut-off 2.0 Muts/Mb)) was 14.3%. For the same substance, the “patients subjected to dose interruption due to TRAEs” value [2] was 3.7%, the “cases positive for ADA” value ([3]; 190 patients) was 3.7% and the “difference in incidence of AEs, SAEs and AEs of grade 3 or above, drug discontinuance or dose delay, and clinical efficacy” value ([3]; between ADA positive and negative patients) was “no significant difference”. The CR ([4]; IRC, RECIST1.1, n = 190) was 5 (2.6%), the NE ([4]; IRC, RECIST1.1, n = 190) was 28 (14.7%) and the PD ([4]; IRC, RECIST1.1, n = 190) was 86 (45.3%). For the same substance, the PR ([4]; IRC, RECIST1.1, n = 190) was 34 (17.9%), the CR ([4]; IRC, RECIST v1.1, 190 patients) was 5 cases and the PR ([4]; IRC, RECIST v1.1, 190 patients) was 34 cases. The CR ([4]; IRC, irRECIST, n = 190) was 5 (2.6%), the NE ([4]; IRC, irRECIST, n = 190) was 28 (14.7%) and the PD ([4]; IRC, irRECIST, n = 190) was 71 (37.4%). For the same substance, the PR ([4]; IRC, irRECIST, n = 190) was 34 (17.9%), the ORR ([4]; IRC, keratinizing NPC (n = 8)) was 62.5% and the ORR ([4]; IRC, non-keratinizing NPC (n = 182)) was 18.7%. For the same substance, the CR [4, 5] was 5 (2.6%), the “DCR (%)” value [4, 5] was 88 (46.3%) and the NE [4, 5] was 24 (12.6%). The “ORR (%)” value [4, 5] was 40 (21.1%), the PD [4, 5] was 78 (41.1%) and the PR [4, 5] was 35 (18.4%). For the same substance, the CR [4, 6] was 5 (2.6%), the “DCR (%)” value [4, 6] was 103 (54.2%) and the NE [4, 6] was 28 (14.7%). The “ORR (%)” value [4, 6] was 44 (23.2%), the PD [4, 6] was 59 (31.1%) and the PR [4, 6] was 39 (20.5%). For the same substance, the “median DOR” value ([4]; all subjects) was 12.8 months, the “median overall survival (mOS)” value ([4]; all subjects) was 17.4 months and the “median progression-free survival (mPFS)” value ([4]; all subjects) was 1.9 months. For the same substance, the “median time to response” value ([4]; all subjects) was 1.8 months, the “patients who had died” value ([4]; as of Feb. 19, 2020, 190 patients) was 49.5% and the mOS [4, 7] was 15.1 months. The mPFS [4, 7] was 2.0 months, the “median DOR” value [4, 7] was 21.5 months and the OS ([4]; keratinizing NPC) was “not reached”. For the same substance, the PFS ([4]; keratinizing NPC) was 16.6 months, the “HR for OS” value [4, 8] was 0.51 and the “HR for PFS” value [4, 8] was 0.46. For the same substance, the “subjects who had reductions in target lesions relative to baseline” value ([4]; n = 190) was 38.4%, the “subjects with a reduction greater than or equal to 30% in target lesions from baseline” value ([4]; n = 190) was 25.3% and the OS ([4]; non-keratinizing NPC) was 15.1 months. The PFS ([4]; non-keratinizing NPC) was 1.9 months, the ORR ([4]; patients who had received at least two prior treatments (n = 116)) was 21.6% and the “median OS” value ([4]; subjects experiencing objective response (n = 39) or stable disease (n = 38)) was “not reached”. For the same substance, the “median OS” value ([4]; subjects with progressive disease (n = 113)) was 8.4 months.
